Source: patent US10509041B2, “Glucose derivative, and cell imaging method and imaging agent using said derivative” (HIROSAKI UNIVERSITY, priority 2014, dated 2019)

Legend:
[1] = tested on: MIN6 cell masses (spheroids); experiment: Fluorescent imaging of tumor cell masses (spheroids) of MIN6 cells with mixed fluorescent glucose derivative solutions; format: cell-based, mouse; conditions: 100 μM CDG+100 μM 2-NBDLG+20 μM 2-TRLG mixed solution, 3 minutes, 6 minutes after start of washout, culture day 17
Experimental: A fluorescent mixed solution containing 100 μM CDG, 100 μM 2-NBDLG, and 20 μM 2-TRLG (CDG/2-NBDLG/2-TRLG) was administered at 37° C. for 3 minutes to MIN6 cell masses (spheroids) at culture day 17, and fluorescent imaging was conducted.
10 μL of a culture solution containing MIN6 cells suspended at a density of 6×10^4 cells/mL was added dropwise onto each glass cover slip, and then, the glass cover slip was left standing for 40 minutes in an incubator for fixation to the glass surface. The cells were cultured by the addition of 3 mL of a culture solution (600 cells/slip). Spheroids were formed by continuing the culture for 15 to 17 days. Half the amount of the culture solution was replaced with a fresh one once every three days.
The MIN6 cells used were cells kindly provided by professor Junichi Miyazaki (Osaka University) and subcultured 6 to 10 times. Half the amount of the culture solution was replaced with a fresh one once every two days.
13.4 g of high glucose-containing Dulbecco's modified Eagle's Medium (DMEM-HG) (Sigma-Aldrich, #D5648), 3.4 g of NaHCO3, and 5 μL of 2-mercaptoethanol were dissolved in 1 L of ultrapure water, and the pH of the solution was adjusted to 7.30 to 7.35 in a CO2 incubator of 37° C. The culture solution was supplemented with fetal bovine serum (Hyclone, Cat# SH30070.03) at a final concentration of 10% and penicillin-streptomycin at a final concentration of 0.5%.
The whole amount of the 0.5 mg CDG vial was recovered using 0.73 mL in total of 10% DMSO and dissolved by addition to 7.0 ml of a KRB solution for image acquisition according to the method described in Non Patent Literature 2.
The whole amount of one 0.5 mg 2-NBDLG vial was dissolved in 7.3 mL of a KRB solution for image acquisition.
The CDG solution and the 2-NBDLG solution were mixed at a ratio of 1:1. The whole amount of the 0.2 mg 2-TRLG vial was recovered using 130 μL in total of DMSO and mixed with 13 ml of the CDG+2-NBDLG mixed solution according to the method described in Non Patent Literature 2 (final concentration: 100 μM CDG+100 μM 2-NBDLG+20 μM 2-TRLG mixed solution). […]
The glass cover slip with the cultured MIN6 cells was transferred into the KRB solution for image acquisition in a perfusion chamber loaded on a stage of a fluorescence microscope, followed by measurement. […]
The KRB solution for image acquisition was warmed in advance in an aluminum syringe heater and supplied to the perfusion chamber through hydrostatic pressure. […] Immediately before being introduced to the perfusion chamber, the solution was rewarmed via an inline heater so that the actually measured temperature of the perfusate in an observation region in the chamber was adjusted to 36±1° C. […]

[2] = tested on: neuronal cells of the substantia nigra pars reticulate of the midbrain; experiment: Fluorescent imaging of acutely isolated normal neuronal cells; format: cell-based, mouse; conditions: 3 minutes, 8 minutes after start of washout
Experimental: The whole amount of the 0.5 mg CLG vial was recovered using 0.73 mL in total of 10% DMSO and dissolved (100 μM) by addition to 14.79 ml of a HEPES solution for image acquisition according to the method described in Non Patent Literature 2. […]
150 mM NaCl, 5 mM KCl, 1 mM MgCl2, 2 mM CaCl2, and 10 mM HEPES (the pH of the solution was adjusted to 7.4 with a 1 M tris(2-amino-2-hydroxymethyl-1,3-propanediol) solution). The concentration of glucose was set to 10 mM. 0.1 mM carbenoxolone (Sigma-Aldrich, #C4790) was added thereto for the purpose of inhibiting the entrance and exit of fluorescently labeled glucose by way of gap junction/hemichannel. This HEPES solution for image acquisition was used for preparing the CLG solution and the mixed solution with the additional fluorescent sugar derivative.
Neuronal cells […] to the method described in the previous reports of the inventors (WO2010/16587 (Patent Literature 2)) and (WO2012/133688 (Patent Literature 4)) and attached to each glass cover slip coated with poly-L-lysine. Then, the glass cover slip was transferred into the HEPES solution for image acquisition in a perfusion chamber loaded on a stage of a fluorescence microscope, followed by observation.
A silicon plate of 1 mm thickness bored to have a streamline-shaped hole (10 mm wide x 35 mm long) was placed via cover glass onto an aluminum heating control platform (Warner Instruments) having a round hole (diameter: 18 mm) for an objective lens at the bottom, and allowed to be in close contact with the cover glass.
The HEPES solution for image acquisition was warmed in advance in an aluminum syringe heater and supplied to the perfusion chamber through hydrostatic pressure. The perfusion rate was adjusted to 1.3±0.2 mL/min using a flow rate adjuster. Immediately before being introduced to the perfusion chamber, the solution was rewarmed via an inline heater so that the actually measured temperature of the perfusate in an observation region in the chamber was adjusted to 32.5±1° C. The CLG/2-TRLG mixed solution was able to be supplied in the same way as above and was switched with the HEPES solution for image acquisition using an electromagnetic valve capable of controlling the opening and closing of the channel. The solution was removed using a vacuum pump capable of controlling suction pressure.
The fluorescence microscope used was NIKON ECLIPS-Ti, and images were acquired with a CCD camera Retiga 2000R.
CLG and 2-TRLG were each detected using the following filter cassette.
Excitation 360/40 nm, Dichroic mirror 400 nm, Emission 460/50 nm.
Excitation 567/15 nm, Dichroic mirror 593 nm, Emission 593 nm Long pass.
The objective lens used in this method was ×20 dry lens (Nikon Plan S Fluor). The images were acquired at 1600×1200 pixels. […]

[3] = Fluorescence spectrum (excitation and fluorescence maxima); format: physicochemical
Description: The fluorescence spectra of CDG synthesized in (1) and QDG synthesized in (2) were compared with the fluorescence spectrum of 2-NBDLG (manufactured by Peptide Institute, Inc.).
The numeric values described above the graph denote the fluorescence maximum of CDG and QDG, respectively. It is evident that the fluorescence maximum was largely shifted to shorter wavelength as compared with the fluorescence maximum of 2-NBDLG present around 550 nm.

[4] = tested on: mouse insulinoma cells (MIN6); experiment: Increase in fluorescence intensity (uptake) after administration of fluorescent glucose derivative to MIN6 cells, influence of cytochalasin B (CB) or phloretin (PHT), fluorescence microplate reader; format: cell-based; conditions: QDG final concentration 100 NM as printed, Ex 354 nm, Em 435 nm

Molecule | maximum excitation wavelength (Ex max) [3] [nm] | maximum fluorescence wavelength (Em max) [3] | also measured
2-Texas Red-2-amino-2-deoxy-L-glucose [Compound 2-TRLG, reference compound] |  |  | uptake in the central portion of the spheroid [1]: strong uptake; uptake into normal neuronal cells ([2]; 100 μM CDG+20 μM 2-TRLG mixed solution, 14-day-old mouse): not taken into the normal neuronal cells; uptake into normal neuronal cells ([2]; 100 μM CLG+20 μM 2-TRLG mixed solution, 21-day-old mouse): not taken into the normal neuronal cells
Cc1cc2ccc(NC3C(O)OC(CO)[C@@H](O)[C@@H]3O)cc2oc1=O (stereo partly drawn) [Compound 3-MCDG, 2-deoxy-2-(2-oxo-3-methyl-2H-chromen-7-yl)amino-D-glucose] | 361.0 | 460.0 nm | 
O=[N+]([O-])c1ccc(NC2C(O)OC(CO)[C@H](O)C2O)c2nonc12 (stereo partly drawn) [Compound 2-NBDLG, 2-[N-(7-nitrobenz-2-oxa-1,3-diazol-4-yl)amino]-2-deoxy-L-glucose, reference compound] |  | around 550 nm | uptake into cells of MIN6 spheroids, intracellular localization [1]: strongly taken into the cytoplasm
O=c1oc2cc(NC3C(O)OC(CO)[C@@H](O)[C@@H]3O)ccc2cc1C(F)(F)F (stereo partly drawn) [Compound 3-TFMCDG, 2-deoxy-2-(2-oxo-3-trifluoromethyl-2H-chromen-7-yl)amino-D-glucose] | 381.0 | 455.0 nm | 
O=c1ccc2ccc(NC3C(O)OC(CO)[C@@H](O)[C@@H]3O)cc2[nH]1 (stereo partly drawn) [QDG, 2-deoxy-2-(2-oxo-1,2-dihydroquinolin-7-yl)amino-D-glucose] | 353.5 | 423.0 nm | effect of CB on increase in fluorescence intensity caused by administration ([4]; CB as in Example 11): significantly inhibited; effect of PHT on increase in fluorescence intensity caused by administration ([4]; PHT as in Example 12): more strongly inhibited
O=c1cc(C(F)(F)F)c2ccc(NC3C(O)OC(CO)[C@@H](O)C3O)cc2o1 (stereo partly drawn) [Compound 4-TFMCDG, 2-deoxy-2-(2-oxo-2H-4-trifluoromethyl-chromen-7-yl)amino-D-glucose] | 380.0 | 500.0 nm | 
O=c1ccc2ccc(NC3C(O)OC(CO)[C@H](O)[C@H]3O)cc2[nH]1 (stereo partly drawn) [QLG, 2-deoxy-2-(2-oxo-1,2-dihydroquinolin-7-yl)amino-L-glucose] | 353.5 | 423.0 nm | 
Cc1cc(=O)oc2cc(NC3C(O)OC(CO)[C@@H](O)[C@@H]3O)ccc12 (stereo partly drawn) [Compound 4-MCDG, 2-deoxy-2-(2-oxo-4-methyl-2H-chromen-7-yl)amino-D-glucose] | 362.0 | 446.0 nm | 
